These results are taken from US9260446B2, “Synthetic methods for spiro-oxindole compounds” (Xenon Pharmaceuticals Inc., priority 2009, dated 2016).

The target of the assay is hNav1.7 (Homo sapiens (Human), UniProt Q15858). The following applies: voltage-gated sodium channel blocking activity against hNav1.7.

Each structure is given as a SMILES string.

Chain of hNav1.7 (Q15858 whole entry): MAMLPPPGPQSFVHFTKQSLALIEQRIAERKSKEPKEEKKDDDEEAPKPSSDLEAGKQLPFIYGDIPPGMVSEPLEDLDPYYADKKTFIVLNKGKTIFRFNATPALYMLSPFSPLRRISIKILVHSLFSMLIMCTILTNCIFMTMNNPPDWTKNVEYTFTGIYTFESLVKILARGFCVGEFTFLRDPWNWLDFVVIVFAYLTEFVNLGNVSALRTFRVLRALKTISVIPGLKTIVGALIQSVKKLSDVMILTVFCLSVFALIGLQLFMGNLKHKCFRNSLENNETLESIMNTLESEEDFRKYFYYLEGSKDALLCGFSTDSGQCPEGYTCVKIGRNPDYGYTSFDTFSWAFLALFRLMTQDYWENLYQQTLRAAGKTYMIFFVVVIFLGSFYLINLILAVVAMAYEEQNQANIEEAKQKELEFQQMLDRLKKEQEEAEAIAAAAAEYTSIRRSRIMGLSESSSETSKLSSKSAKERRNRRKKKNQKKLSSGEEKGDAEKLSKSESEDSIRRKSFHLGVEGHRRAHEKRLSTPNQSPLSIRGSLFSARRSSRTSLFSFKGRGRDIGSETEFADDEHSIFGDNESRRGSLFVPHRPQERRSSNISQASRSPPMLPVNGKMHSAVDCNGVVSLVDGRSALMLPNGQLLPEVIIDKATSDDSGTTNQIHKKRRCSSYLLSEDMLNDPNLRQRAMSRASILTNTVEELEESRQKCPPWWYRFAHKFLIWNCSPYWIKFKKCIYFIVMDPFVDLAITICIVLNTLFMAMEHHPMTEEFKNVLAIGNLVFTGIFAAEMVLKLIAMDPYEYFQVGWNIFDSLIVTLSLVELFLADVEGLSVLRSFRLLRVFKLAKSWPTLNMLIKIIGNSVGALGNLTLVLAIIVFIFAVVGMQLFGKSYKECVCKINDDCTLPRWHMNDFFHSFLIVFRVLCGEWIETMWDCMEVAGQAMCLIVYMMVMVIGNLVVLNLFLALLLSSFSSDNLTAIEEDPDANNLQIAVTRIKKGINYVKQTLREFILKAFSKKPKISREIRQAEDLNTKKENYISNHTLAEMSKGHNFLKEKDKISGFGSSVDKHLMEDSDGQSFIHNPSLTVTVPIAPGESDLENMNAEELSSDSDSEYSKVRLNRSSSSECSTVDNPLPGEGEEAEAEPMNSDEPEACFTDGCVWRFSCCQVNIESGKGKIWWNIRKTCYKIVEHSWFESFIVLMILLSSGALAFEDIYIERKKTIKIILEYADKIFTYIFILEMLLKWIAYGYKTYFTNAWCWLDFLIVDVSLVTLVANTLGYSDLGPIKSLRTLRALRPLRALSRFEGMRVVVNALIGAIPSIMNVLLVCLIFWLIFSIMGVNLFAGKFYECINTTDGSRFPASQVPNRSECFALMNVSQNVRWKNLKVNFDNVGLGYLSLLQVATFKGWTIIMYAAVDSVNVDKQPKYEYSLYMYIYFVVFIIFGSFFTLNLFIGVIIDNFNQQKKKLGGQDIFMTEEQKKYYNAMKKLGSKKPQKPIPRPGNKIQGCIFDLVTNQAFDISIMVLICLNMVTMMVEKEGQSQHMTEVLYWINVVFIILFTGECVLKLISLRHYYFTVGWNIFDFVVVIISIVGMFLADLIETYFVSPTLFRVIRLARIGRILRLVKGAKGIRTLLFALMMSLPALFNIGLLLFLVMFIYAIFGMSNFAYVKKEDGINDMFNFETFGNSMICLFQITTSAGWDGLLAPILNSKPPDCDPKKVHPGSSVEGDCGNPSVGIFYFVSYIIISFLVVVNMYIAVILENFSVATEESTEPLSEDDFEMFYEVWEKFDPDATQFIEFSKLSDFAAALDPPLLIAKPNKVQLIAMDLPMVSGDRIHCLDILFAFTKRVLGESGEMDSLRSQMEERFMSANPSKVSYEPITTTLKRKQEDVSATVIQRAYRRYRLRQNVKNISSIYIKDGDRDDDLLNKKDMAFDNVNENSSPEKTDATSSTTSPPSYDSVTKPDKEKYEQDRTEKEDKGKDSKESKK

Turning to `O=C1N(Cc2ccc(C(F)(F)F)o2)c2ccccc2[C@@]12COc1cc3c(cc12)OCO3` [(I-R), (R)-1′-{[5-(trifluoromethyl)furan-2-yl]methyl}spiro[furo[2,3-f][1,3]-benzodioxole-7,3′-indol]-2′(1′H)-one], half-maximal inhibition (IC50) was put at 4200 nM. `O=C1N(Cc2ncccc2C(F)(F)F)c2ccccc2[C@]12COc1cc3c(cc12)OCCO3` [(II-S), (S)-1′-{[3-(trifluoromethyl)pyridin-2-yl]methyl}-2,3-dihydrospiro[furo[2,3-g][1,4]benzodioxine-8,3′-indol]-2′(1′H)-one] showed an IC50 of 5 nM. Compared with the last molecule, the IC50 is about 840-fold lower. The molecule `O=C1N(Cc2ncccc2C(F)(F)F)c2ccccc2C12COc1cc3c(cc12)OCCO3` (centres unmarked) [(II), 1′-{[3-(trifluoromethyl)pyridin-2-yl]methyl}-2,3-dihydrospiro[furo[2,3-g][1,4]benzodioxine-8,3′-indol]-2′(1′H)-one] returned an IC50 of 15 nM.

In turn, `O=C1N(Cc2ccc(C(F)(F)F)o2)c2ccccc2C12COc1cc3c(cc12)OCO3` (centres unmarked) [(I), 1′-{[5-(trifluoromethyl)-2-furyl]methyl}spiro[furo[2,3-f][1,3]benzodioxole-7,3′-indol]-2′(1′H)-one] gave a concentration for half-maximal inhibition (IC50) of 7 nM. Compared with the last molecule, the IC50 is about 2.1-fold lower. Consider `O=C1N(Cc2ccc(C(F)(F)F)o2)c2ccccc2[C@]12COc1cc3c(cc12)OCO3` [(I-S), (S)-1′-{[5-(trifluoromethyl)furan-2-yl]methyl}spiro-[furo[2,3-f][1,3]benzodioxole-7,3′-indol]-2′(1′H)-one], for which it took 3 nM to reach half-maximal inhibition (IC50). This IC50 is about 2.3-fold lower than that of the molecule before.

Broadly, the IC50 is the point on the concentration scale where inhibition reaches its midpoint. A higher IC50 goes with weaker potency in that assay.
